Our source for the viability values is patent US10105357B2, “Indication of antibiotic drugs for preparation of cancer inhibition pharmaceutical composition” (LAUNX BIOMEDICAL CO., LTD., priority 2014, dated 2018).

Counter-ions that a name gives are not always drawn. Like-named read-outs stand apart in the source and are kept apart here.

The subject of assay [1] is HCT116 (p53+) (Colorectal Carcinoma). Put plainly: cells. Particulars: Homo sapiens, HCT-116, 72 h, read-out: cell viability (survival rate), HCT116.
Assay [2] deals with MCF7 (Mammary Gland, Adenocarcinoma). Put plainly: Cell viability analysis, breast cancer MCF7. Conditions: Homo sapiens. Format: cell-based, human.
The test system of assay [3] is AGS (Gastric Adenocarcinoma). Put plainly: Cell viability analysis, gastric cancer AGS. The format is cell-based, human. Conditions: Homo sapiens.
In assay [4] the test system is A375 (Amelanotic Melanoma). Put plainly: Cell viability analysis, skin cancer A375. Format: cell-based, human. Particulars: Homo sapiens.
Assay [5] concerns HeLa (Cervix Adenocarcinoma). Put plainly: Cell viability analysis, cervical cancer HeLa. The format is cell-based, human. Conditions: Homo sapiens, HeLa.
For assay [6], the system named is TSGH-8301 (Urinary Bladder Carcinoma). Put plainly: Cell viability analysis, bladder cancer TSGH-8301. Format: cell-based, human. Particulars: Homo sapiens.
Assay [7] has as its system LoVo (Colorectal Adenocarcinoma). The assay is described as follows: Cell viability analysis, colon cancer LoVo. Conditions: Homo sapiens, LoVo. Format: cell-based, human.
Assay [8] deals with MKN-45 (Gastric Adenocarcinoma). Put plainly: Cell viability analysis, gastric cancer MKN-45. Conditions: Homo sapiens, MKN-45, 72 h. The format is cell-based, human.
Assay [9] deals with HepG2 (Hepatocellular Carcinoma). Put plainly: Cell viability analysis, hepatic cancer HepG2. The format is cell-based, human. Particulars: Homo sapiens.
The test system of assay [10] is HI650 (Lung Adenocarcinoma). Put plainly: Cell viability analysis, lung cancer HI650. Format: cell-based, human. Conditions: Homo sapiens.
Assay [11] has as its system HL-60 (Acute Promyelocytic Leukemia). Put plainly: Cell viability analysis, leukemia HL-60. The format is cell-based, human. Particulars: Homo sapiens.
Assay [12] relates to A549 (Lung Adenocarcinoma). Put plainly: Cell viability analysis, lung cancer A549. The format is cell-based, human. Conditions: Homo sapiens.
Assay [13] relates to PC3 (p53−) (Prostate Adenocarcinoma). Put plainly: Cell viability analysis, prostate cancer PC3. Particulars: Homo sapiens. The format is cell-based, human.
Where [14] appears, read: MCF7, 72 h, drug 10 μM, 72 hours, WST-1, OD450 nm, read-out: cell viability (survival rate), MCF7.
Where [15] appears, read: 72 h, drug 10 μM, 72 hours, WST-1, OD450 nm, read-out: cell viability (survival rate), AGS.
The mark [16] stands for this setting: A-375, 72 h, drug 10 μM, 72 hours, WST-1, OD450 nm, read-out: cell viability (survival rate), A375.
The mark [17] stands for this setting: 72 h, drug 10 μM, 72 hours, WST-1, OD450 nm, read-out: cell viability (survival rate), HeLa.
Where [18] appears, read: 72 h, drug 10 μM, 72 hours, WST-1, OD450 nm, read-out: cell viability (survival rate), TSGH.
Setting [19] is: 72 h, read-out: cell viability (survival rate), LoVo, drug 10 μM, 72 hours, WST-1, OD450 nm.
[20] abbreviates: drug 10 μM, 72 hours, WST-1, OD450 nm, read-out: cell viability (survival rate), MKN-45.
[21] abbreviates: HepG2, 72 h, drug 10 μM, 72 hours, WST-1, OD450 nm, read-out: cell viability (survival rate), HepG2.
Setting [22] is: NCI-H1650, 72 h, drug 10 μM, 72 hours, WST-1, OD450 nm, read-out: cell viability (survival rate), H1650.
Where [23] appears, read: HL-60, 72 h, drug 10 μM, 72 hours, WST-1, OD450 nm, read-out: cell viability (survival rate), HL-60.
The mark [24] stands for this setting: A549, 72 h, drug 10 μM, 72 hours, WST-1, OD450 nm, read-out: cell viability (survival rate), A549.
Where [25] appears, read: 72 h, drug 10 μM, 72 hours, WST-1, OD450 nm, read-out: cell viability (survival rate), PC3.
Setting [26] is: MCF7, 72 h, read-out: cell viability (survival rate), MCF7, drug 10 μM, 72 hours, WST-1, OD450 nm.
[27] abbreviates: 72 h, read-out: cell viability (survival rate), AGS, drug 10 μM, 72 hours, WST-1, OD450 nm.
Where [28] appears, read: A-375, 72 h, read-out: cell viability (survival rate), A375, drug 10 μM, 72 hours, WST-1, OD450 nm.
Where [29] appears, read: 72 h, read-out: cell viability (survival rate), HeLa, drug 10 μM, 72 hours, WST-1, OD450 nm.
The mark [30] stands for this setting: 72 h, read-out: cell viability (survival rate), TSGH, drug 10 μM, 72 hours, WST-1, OD450 nm.
Setting [31] is: HepG2, 72 h, read-out: cell viability (survival rate), HepG2, drug 10 μM, 72 hours, WST-1, OD450 nm.
The mark [32] stands for this setting: NCI-H1650, 72 h, read-out: cell viability (survival rate), H1650, drug 10 μM, 72 hours, WST-1, OD450 nm.
Where [33] appears, read: HL-60, 72 h, read-out: cell viability (survival rate), HL-60, drug 10 μM, 72 hours, WST-1, OD450 nm.
Where [34] appears, read: A549, 72 h, read-out: cell viability (survival rate), A549, drug 10 μM, 72 hours, WST-1, OD450 nm.
Where [35] appears, read: 72 h, read-out: cell viability (survival rate), PC3, drug 10 μM, 72 hours, WST-1, OD450 nm.
Setting [36] is: read-out: cell viability (survival rate), MKN-45, drug 10 μM, 72 hours, WST-1, OD450 nm.

One may read the viability as a read-out of living cells in per cent, often relative to untreated cells. For the compound `CCCCC(CC)CNC(=N)NC(=N)NCCCCCCNC(=N)NC(=N)NCC(CC)CCCC` (centres unmarked) [Alexidine HCl], the viability at 10 µM is 65.8% in assay [1]; 34.8% in assay [2] (setting [14]); 45.1% in assay [3] (setting [15]); 38.1% in assay [4] (setting [16]); 44.9% in [5] (setting [17]); 36.6% in [6] (setting [18]). Besides, the viability at 10 µM turned out to be 54.6% in assay [7] (setting [19]); 64.4% in assay [8] (setting [20]); 65.9% in assay [9] (setting [21]); 57.5% in assay [10] (setting [22]); 29.4% in [11] (setting [23]); 25.3% in assay [12] (setting [24]). Moreover, the viability at 10 µM in assay [13] (setting [25]) worked out at 38%.
As to `CC(=O)Nc1ncc([N+](=O)[O-])s1` [Nithiamide], the viability at 10 µM in assay [1] turned out to be 86.9%; in assay [2] (setting [14]) it was 65.5%; in assay [3] (setting [15]) it was 102%; in [4] (setting [16]) it was 96.7%; in assay [5] (setting [17]) it was 83%; in [6] (setting [18]) it was 122%. Further, the viability at 10 µM was 89.8% in assay [7] (setting [19]); 76.7% in assay [8] (setting [20]); 94.8% in [9] (setting [21]); 67.1% in assay [10] (setting [22]); 102% in assay [11] (setting [23]); 39.3% in assay [12] (setting [24]). Moreover, in [13] (setting [25]), the viability at 10 µM is 74.5%.
On to `O=c1cc[nH]c(=O)[nH]1` [Uracil], for which the viability at 10 µM stood at 94.3% in assay [1]; 103% in assay [2] (setting [26]); 82.9% in assay [3] (setting [27]); 98.2% in [4] (setting [28]); 107% in assay [5] (setting [29]); 104% in assay [6] (setting [30]). Besides, the viability at 10 µM in assay [7] (setting [19]) came to 70.2%; in [9] (setting [31]), 100%; in assay [10] (setting [32]), 91.8%; in [11] (setting [33]), 98.7%; in assay [12] (setting [34]), 80.5%; in [13] (setting [35]) it was 163%.
With `Nc1c2ccccc2nc2ccccc12` [9-Aminoacridine], the viability at 10 µM in assay [1] came out at 70.5%; in assay [2] (setting [26]), 34.1%; in assay [3] (setting [27]), 42.8%; in assay [4] (setting [28]) it was 36.4%; in assay [5] (setting [29]), 43.6%; in [6] (setting [30]), 34.6%. Also, the viability at 10 µM is 58.5% in [7] (setting [19]); 63.1% in assay [8] (setting [36]); 63.5% in assay [9] (setting [31]); 56.9% in [10] (setting [32]); 28.8% in [11] (setting [33]); 25.8% in [12] (setting [34]). Moreover, the viability at 10 µM in assay [13] (setting [35]) was found to be 38.7%.
With `Cc1cc(O)ccc1Cl` [Chlorocresol], the viability at 10 µM in assay [1] is 61.7%; in assay [2] (MCF7, 72 h, read-out: cell viability (survival rate), MCF7) it was 64.2%; in assay [3] (72 h, read-out: cell viability (survival rate), AGS), 103%; in assay [4] (A-375, 72 h, read-out: cell viability (survival rate), A375) it was 65.4%; in [5] (72 h, read-out: cell viability (survival rate), HeLa), 96.3%; in assay [6] (72 h, read-out: cell viability (survival rate), TSGH), 113%. For the same compound, the viability at 10 µM in assay [7] (72 h, read-out: cell viability (survival rate), LoVo) turned out to be 62%; in [9] (HepG2, 72 h, read-out: cell viability (survival rate), HepG2), 98.6%; in [10] (NCI-H1650, 72 h, read-out: cell viability (survival rate), H1650) it was 91.5%; in assay [11] (HL-60, 72 h, read-out: cell viability (survival rate), HL-60) it was 96.4%; in [12] (A549, 72 h, read-out: cell viability (survival rate), A549) it was 80.1%; in assay [13] (72 h, read-out: cell viability (survival rate), PC3), 130%.
With `CNC[C@H](O)[C@@H](O)[C@H](O)[C@H](O)CO` [Meglumine], the viability at 10 µM in assay [1] came to 92.7%; in assay [2] (MCF7, drug 10 μM, 72 hours, WST-1, OD450 nm, read-out: cell viability (survival rate), MCF7) it was 97%; in [3] (drug 10 μM, 72 hours, WST-1, OD450 nm, read-out: cell viability (survival rate), AGS), 95%; in [4] (A-375, drug 10 μM, 72 hours, WST-1, OD450 nm, read-out: cell viability (survival rate), A375), 78.2%; in assay [5] (drug 10 μM, 72 hours, WST-1, OD450 nm, read-out: cell viability (survival rate), HeLa), 74.1%; in assay [6] (drug 10 μM, 72 hours, WST-1, OD450 nm, read-out: cell viability (survival rate), TSGH), 109%. The viability at 10 µM in [7] (drug 10 μM, 72 hours, WST-1, OD450 nm, read-out: cell viability (survival rate), LoVo) was 78.4%; in [9] (HepG2, drug 10 μM, 72 hours, WST-1, OD450 nm, read-out: cell viability (survival rate), HepG2) it was 90.8%; in assay [10] (NCI-H1650, drug 10 μM, 72 hours, WST-1, OD450 nm, read-out: cell viability (survival rate), H1650), 62%; in assay [11] (HL-60, drug 10 μM, 72 hours, WST-1, OD450 nm, read-out: cell viability (survival rate), HL-60), 114%; in assay [12] (A549, drug 10 μM, 72 hours, WST-1, OD450 nm, read-out: cell viability (survival rate), A549) it was 108%; in assay [13] (drug 10 μM, 72 hours, WST-1, OD450 nm, read-out: cell viability (survival rate), PC3), 76.8%.
For `CCCCCCCCCCCCCCCCO` [1-Hexadecanol], the viability at 10 µM came out at 69.8% in assay [1]; 89.4% in assay [3] (setting [15]); 113% in assay [4] (setting [16]); 91.3% in assay [5] (setting [17]); 98.8% in assay [7] (setting [19]); 85.5% in assay [8] (setting [20]). The viability at 10 µM in assay [9] (setting [21]) is 96%; in [10] (setting [22]), 84.3%; in [11] (setting [23]) it was 92.2%; in assay [12] (setting [24]), 84%; in [13] (setting [25]), 91.9%.
As to `COC(=O)C1=CO[C@@H](O)[C@@H]2C(CO)=CC[C@H]12` [Genipin], the viability at 10 µM in assay [1] was determined as 82.7%; in [2] (setting [26]), 71.7%; in [3] (setting [27]), 49.6%; in assay [4] (setting [28]), 78%; in [5] (setting [29]), 74.5%; in [6] (setting [30]), 67.7%. For the same compound, the viability at 10 µM in [8] (setting [36]) was determined as 54.1%; in [9] (setting [31]), 87.1%; in [10] (setting [32]) it was 69.5%; in assay [11] (setting [33]), 117%; in assay [12] (setting [34]), 61.8%; in [13] (setting [35]), 71.6%.
